In publication PMC4997316, “A ruthenium polypyridyl intercalator stalls DNA replication forks, radiosensitizes human cancer cells and is enhanced by Chk1 inhibition” (Scientific Reports, 2016):

Assays:
HeLa cells [1] = test: cell-cycle analysis by PI flow cytometry; assay type: cell-based, human; details: 40 μM, 24 h
Protocol: Figure 4 [Ru(dppz)2(PIP)]^2+ induces Chk1 checkpoint kinase activation and G1-S cell-cycle arrest. […] See SI for densitometry. (c) Cell-cycle distributions of HeLa cells incubated with DMSO (0.2%), 1 or 2 at the stated concentrations and time. DNA content was quantified using propidium iodide (PI) and analysed by flow cytometry. […] Data mean of three independent experiments +/− SD. […] They are copied as bare numbers, left to right. / The gate numbers in panel c are very small, so 3, 5, 6, 8 and 9 cannot be told apart with certainty. All the values below are best readings. / DMSO: 0.86, 57.4, 22.5, 16.8 uncertain / 1 (40 μM, 3 h): 0.46, 72.7, 13.5, 8.77 uncertain / 1 (40 μM, 8 h): 1.69, 73.2, 15.3, 3.6 uncertain / 1 (40 μM, 24 h): 1.2, 72.9, 15.8, 6.47 uncertain. […] 32.4 is partly overlapped by the peak line.
Cells were washed with PBS and detached using Trypsin. After centrifugation at 1000 rpm for 5 min, cells were fixed in cold 70% ethanol for 30 mins, centrifuged and re-suspended in PBS. Samples were stained using 10 μg/ml propidium iodide (PI) and 200 μg/ml RNAase A for 30 mins before FACS analysis using a Biosciences LSRII Flow Cytometer. A minimum of 10,000 cells were counted for each sample and data were processed using FloJo software. […]

HeLa cells [2] = test: quantification of apoptotic morphology (pyknosis/karyorrhexis); assay type: cell-based, human; details: single-agent treatment, 48 h (1 40 μM; CHIR-124 500 nM)
Protocol: (§1) With this in mind, and considering the strong Chk1 activation in response to 1, HeLa cervical cancer cells, which are […][44], were exposed to a combination of 1 plus the Chk1 inhibitor CHIR-124[45] and the impact of co-treatment upon cell viability determined. A non-cytotoxic dose of 500 nM CHIR-124 was used and results were compared to single-agent treatment. […] Minimal enhancement of the anti-proliferative effect of 2 by CHIR-124 was observed (Fig. S15b), in agreement with 2 operating via a Chk1-independent mechanism.
Figure 5 Concurrent treatment of [Ru(dppz)2(PIP)]^2+ plus the Chk1 inhibitor CHIR-124 potentiates synergistic apoptosis in cancer cells. (a) Viability of HeLa (cervical cancer) or hSAEC1-KT (normal epithelial) cells after incubation with 1 in the absence or presence of Chk1 inhibitor CHIR-124 (500 nM) for 48 h constant exposure. (b) Morphological evidence for apoptosis (pyknosis/karyorrhexis, arrows) in HeLa cells treated with 40 μM 1 plus CHIR-124 for 48 h. Scale bars = 20 μm. (c) Quantification of apoptotic cells for experimental conditions as shown in (b). Equivalent results for 2 (40 μM, 48 h) included. Data mean of two independent experiments +/− SD. […] (f) Quantification of γH2AX foci from cells treated as in (e). […] Minimum of 150 cells counted per experiment. […]

[3] = test system: hSAEC1-KT human epithelial cells; test: cell viability with or without Chk1 inhibitor CHIR-124, hSAEC1-KT; assay type: cell-based; details: normal hSAEC1-KT cells, plus CHIR-124 500 nM, 48 h, any concentration of 1
Protocol: as §1
(§2) Figure 5 Concurrent treatment of [Ru(dppz)2(PIP)]^2+ plus the Chk1 inhibitor CHIR-124 potentiates synergistic apoptosis in cancer cells. (a) Viability of HeLa (cervical cancer) or hSAEC1-KT (normal epithelial) cells after incubation with 1 in the absence or presence of Chk1 inhibitor CHIR-124 (500 nM) for 48 h constant exposure. […] (c) Quantification of apoptotic cells for experimental conditions as shown in (b). […] (f) Quantification of γH2AX foci from cells treated as in (e). […] Minimum of 150 cells counted per experiment. […]
(§3) Cells were seeded in 96 well plates at 20,000 cells/well, allowed to proliferate for 24 h before treatment as described in the main text. […] The absorbance at 540 nm was quantified by plate reader (reference wavelength 650 nm). The metabolic activity of the cell population was determined as a percentage of a negative (solvent) control.

[4] = test system: HeLa cervical cancer cells; test: cell viability with or without Chk1 inhibitor CHIR-124, HeLa; assay type: cell-based, human; details: plus CHIR-124 500 nM, 48 h constant exposure
Protocol: as §1, §2, §3

HeLa cells [5] = test: Trypan Blue exclusion assay; assay type: cell-based, human; details: 40 μM
Protocol: HeLa cells were seeded in 6 well plates at 100,000 cells/well and allowed to proliferate for 24 h. Cell cultures were treated as stated, media containing detached/dead cells were removed and retained, adherent cells washed with PBS and detached with Trypsin. Adherent and detached cells for each sample were combined, concentrated via centrifugation and re-suspended in 0.5 ml PBS containing 0.04% Trypan Blue solution. Trypan Blue-negative and Trypan Blue-positive cells were counted by haemocytometer. A minimum of 200 cells were counted for each sample.

| SMILES | change in cell-cycle distribution compared to controls (HeLa cells [1]) | morphological evidence of apoptosis (pyknosis/karyorrhexis) (HeLa cells [2]) [%] | impact on cell health on combination with CHIR-124 [3] | cell viability on simultaneous treatment with CHIR-124 compared to either agent alone [4] | HeLa cell growth (viable cell numbers) (HeLa cells [5]; 24–72 h treatment) | cytotoxicity (HeLa cells [5]; HeLa, up to 72 h, % total cells, read-out: non-viable (Trypan Blue positive) populations) [%] |
| --- | --- | --- | --- | --- | --- | --- |
| Oc1ccc(-c2nc3c4cccnc4c4ncccc4c3[nH]2)cc1.[Ru+2].c1ccc2nc3c4cccnc4c4ncccc4c3nc2c1.c1ccc2nc3c4cccnc4c4ncccc4c3nc2c1 [Complex 2, [Ru(dppz)2(p-HPIP)]^2+] | no change in cell-cycle distribution | – | – | – | – | – |
| [Ru+2].c1ccc(-c2nc3c4cccnc4c4ncccc4c3[nH]2)cc1.c1ccc2nc3c4cccnc4c4ncccc4c3nc2c1.c1ccc2nc3c4cccnc4c4ncccc4c3nc2c1 [Complex 1, [Ru(dppz)2(PIP)]^2+] | – | < 5 | no substantial impact on cell health | significant decrease in cell viability | completely halts HeLa cell growth | < 20 |
